Measurements published in patent US5919897A (priority 1995, dated 1999).
Where no end group is shown, it is not given here. [ ]: non-standard residue; d: D form.

What was measured:
μ receptor = target: T1, μ receptor (Homo sapiens, UniProt P35372); test: Adenylyl cyclase assay using human SH-SY5Y neuroblastoma cell line membranes; assay type: biochemical
T1 construct: An adenylyl cyclase assay using human SH-SY5Y neuroblastoma cell line membranes; endogenous in cells; host or cells: human SH-SY5Y neuroblastoma cells, differentiated with retinoic acid; membranes
Protocol: An adenylyl cyclase assay using human SH-SY5Y neuroblastoma cell line membranes was used to rapidly determine the opioid agonists or antagonist properties of individual peptides.
After the initial centrifugation at 200×g for 15 min at 4° C., the cells were resuspended in sucrose buffer (0.32M sucrose, 40 mM HEPES, 2 mM EDTA, pH 7.6). Cells were centrifuged again at 200×g, then homogenized in sucrose buffer with five strokes of a Dounce Homogenizer (Wheaton Instruments, Millville, N.J.). Membranes were centrifuged at 22000×g for 20 min at 4° C., then resuspended in sucrose buffer. […] SH-SY5Y membranes at a protein concentration of 1-4 mg/ml were stored at -80° C.
SH-SY5Y membranes were incubated in a final volume of 100 μl of 40 mM HEPES, pH 7.7, containing 15 units of creatine phosphokinase, 20 mM phosphocreatine, 1 mM 1,10-o-phenanthroline, 60 μM isobutylmethylxanthine (IBMX), 50 μM ATP, 50 μM GTP, 3 mM MgCl2 and 100 mM NaCl. Each of the agonists and antagonists tested were included at final concentrations of 100 μM and 500 μM, respectively. The reaction was initiated by the addition of 36 μg of membrane protein. After 15 min at 30° C., the reaction was stopped by the addition of 100μl of cold 4.5% perchloric acid. The samples were neutralized by the addition 40 μl of cold 30% potassium bicarbonate. Finally, the membranes were centrifuged at 12000×g for 4 min at 4° C. in a microcentrifuge; The amount of cyclic AMP present in 100μl of the supernatant, equivalent to the cyclic AMP produced by 15 μg of membrane protein, was determined using a cyclic AMP kit (Diagnostic Products, Los Angeles, Calif.). […] [^3 H]-cyclic AMP, 0.9 μCi, was added into 6 ml of H2 O, and 100 μl of the diluted [^3 H]-cyclic AMP was added to the assay tubes. The final supernatants were counted in 10 ml of Ecolite (+) scintillation fluid (ICN Pharmaceuticals, Covina, Calif.).

MU RECEPTOR = test: Mu receptor agonist or antagonist activity, by either the adenylyl cyclase assay or the GPI assay (Table 13)

T1 sequence (P35372 whole entry): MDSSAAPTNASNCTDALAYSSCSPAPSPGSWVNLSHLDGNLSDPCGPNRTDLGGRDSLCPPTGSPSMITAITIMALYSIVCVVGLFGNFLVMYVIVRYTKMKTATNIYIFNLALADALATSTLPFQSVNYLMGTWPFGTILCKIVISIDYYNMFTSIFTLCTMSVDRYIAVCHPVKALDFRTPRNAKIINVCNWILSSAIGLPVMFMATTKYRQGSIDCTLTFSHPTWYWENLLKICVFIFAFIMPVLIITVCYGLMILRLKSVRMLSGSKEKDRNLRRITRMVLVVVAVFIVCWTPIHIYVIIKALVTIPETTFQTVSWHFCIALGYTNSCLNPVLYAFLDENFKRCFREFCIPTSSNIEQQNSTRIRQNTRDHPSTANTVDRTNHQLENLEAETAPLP

C[C@@H](NC(=O)[C@@H](N)Cc1ccc(O)cc1)C(=O)NCC(=O)N(C)[C@@H](Cc1ccccc1)C(=O)NCCO [DAMGO, [D-Ala^2,MePhe^4, Gly-ol^5]enkephalin]
% Basal Control (cyclic AMP) (μ receptor; DAMGO 1 μM alone, ANTAGONISTS section): 61 ± 5% | % Basal Control +ICI 174,864 (μ receptor; DAMGO 1 μM, ANTAGONISTS section): 95 ± 3% | % Basal Control +ICI 174,864 (μ receptor; agonist 100 μM plus ICI 174,864 (antagonists 500 μM)): 28 ± 3% | % Basal Control +Naloxone (μ receptor; agonist 100 μM plus naloxone (antagonists 500 μM)): 77 ± 8% | % Basal Control (cyclic AMP) (μ receptor; agonist alone, 100 μM, SH-SY5Y membranes): 34 ± 6%

[dI][dM][dT][dW]G[dP]-NH2 [SEQ ID NO. 130]
AGONIST OR ANTAGONIST (MU RECEPTOR): Agonist
